Reference: patent US9006191B2, “Silencing of polo-like kinase expression using interfering RNA” (Protiva Biotherapeutics, Inc., priority 2007, dated 2015)
Where “and” joins values, the source holds several entries; their conditions need not be identical. Equal values may be shown once. Entries after “also recorded” stand apart in the source; their conditions may differ.

Key:
[1] = system: LS174T cells; test: LS174T cell viability assay; assay type: cell-based, human; details: SNALP-formulated siRNA, 72 h
Method: SNALP containing PLK1424 or PLK773 siRNA (“2:40” SNALP formulation: 2% PEG-cDMA; 40% DLinDMA; 10% DSPC; and 48% cholesterol) were tested for their effects on cell viability and silencing of PLK-1 mRNA in HT29 and LS174T human colon cancer cells. Cells were plated in triplicate at ˜10,000 cells/well. SNALP dosages were as follows: 30 nM; 10 nM; 3.3 nM; 1.1 nM; 0.37 nM; and 0.12 nM. Branched DNA mRNA assays were performed 24 hours following transfection. Cell viability assays were performed at 72 hours following transfection. SNALP containing a non-targeting (GFP) siRNA were used as a negative control. […] The effects on cell viability correlated with silencing of the target PLK-1 mRNA.

[2] = system: HepG2 cells; test: HepG2 cell viability assay; assay type: cell-based, human; details: PLK1424 SNALP 0.31-5 nM, 72 h
[3] = SNALP particle size and polydispersity; assay type: physicochemical
[4] = system: Hep3B cells; details: SNALP-formulated siRNA, 72 h
Method: Cell Viability Assay: Cell viability of in vitro cell cultures was assessed using the commercial reagent CellTiter-Blue® (Promega Corp.; Madison, Wis.), a resazurin dye that is reduced by metabolically active cells to the fluorogenic product resorufin. Various cancer cell lines were cultured in vitro using standard tissue culture techniques. 48-72 hours after treatment with siRNA formulations and/or chemotherapy drugs, the CellTiter-Blue® reagent was added to the culture to quantify the metabolic activity of the cells, which is a measure of cell viability.
Cell Cultures. The cell lines Hep3B, HepG2, HT29, LS174T, and Neuro2a cells were obtained from the American Type Culture Collection (ATCC; Manassas, Va.) and cultured in the recommended basal media with 10% heat inactivated FBS and 1% penicillin-streptomycin. […] For in vitro siRNA activity assays, cell lines were cultured in 96 well plates in the presence of SNALP formulated siRNA. Cell viability was assessed after 72 h using the resazurin dye CellTiter Blue (Promega Corp).

[5] = system: anti-PEG-lipid IgG and IgM antibodies; test: In vivo PEG-lipid antibody induction assay; set-up: species or system mouse; details: CD1 ICR mice, 1:57 SNALP IV at Days 0, 7, 14; plasma Days 7, 14, 21
Method: In vivo PEG-lipid antibody induction assays. Animal studies were performed to test for the induction of an antibody response to 2′OMe-modified PLK1424 siRNAs that were encapsulated in a 1:57 SNALP formulation containing the lipid conjugate PEG-cDMA. Six-week-old female CD1 ICR mice were used in this study. […] Mice were then sacrificed on Day 21. The tolerability of the treatment regime was monitored by animal appearance, behavior, and body weight. Anti-PEG-lipid IgG and IgM antibodies in plasma at Days 7, 14, and 21 were measured by ELISA.

[6] = system: IFIT1 mRNA, serum IFNα; test: In vivo immune stimulation assay in Balb/c mice (IFIT1 mRNA, serum IFNα); details: SNALP-formulated siRNA IV, 4 h
Method: (§1) Balb/c mice (n=4 per group) were administered 2.5 mg/kg siRNA or lipid vehicle; serum IFNα (pg/mL) and IFIT1 mRNA (relative to GAPDH) from whole liver lysates were assessed after 4, 8, and 16 h by ELISA and bDNA assay, respectively. […] (b) Serum IFNα and (c) liver IFIT1 mRNA were assessed 4 h after administration (mean+SD, n=4).
(§2) SNALP-formulated Luc (unmodified) and the 2′OMe-modified Luc-U/U, PLK1424-2/A, PLK773-1/B, or KSP2263-U/U siRNA were administered at 2 mg/kg i.v. to Balb/C mice. (A) IFIT1 relative to GAPDH mRNA in liver and spleen was assessed at 4 h by bDNA analysis. […] Serum IFNα was assessed at 6 h by ELISA. […] Values represent mean+SD (n=4).
(§3) IFIT1 mRNA and serum cytokines were assessed 4-6 h after SNALP administration based on the approximate time of peak response for these markers. In these studies, SNALP-formulated native Luc siRNA (Table 6) was used as a positive control for immune stimulation.
(§4) In vivo immune stimulation assays. […] 6-8 week old Balb/C mice were obtained from Harlan and subject to a two week acclimation period prior to use. Mice were administered SNALP formulated siRNA (2 mg/kg) in PBS via standard intravenous injection in the lateral tail vein. Blood was collected by cardiac puncture and processed as plasma for cytokine analysis. Liver and spleen were collected into RNALater (Sigma Co.) for IFIT1 mRNA analysis.
(§5) Measurement of IFIT1 mRNA in mouse tissues. Murine liver and spleen were processed for bDNA assay to quantitate IFIT1 mRNA as described above. The IFIT1 probe set was specific to mouse IFIT1 mRNA (positions 4-499 of NM—008331) and the GAPDH probe set was specific to mouse GAPDH mRNA (positions 9-319 of NM—008084). Data is shown as the ratio of IFIT1 relative light units (RLU) to GAPDH RLU.
(§6) Cytokine ELISA. All cytokines were quantified using sandwich ELISA kits. These were mouse interferon-α (PBL Biomedical; Piscataway, N.J.) and human and mouse IL-6 (BD Biosciences; San Diego, Calif.).

[7] = system: human PLK-1 mRNA; test: PLK-1 mRNA in Hep3B tumors (QuantiGene bDNA assay); assay type: in vivo; details: hepatic Hep3B tumors, single 2 mg/kg IV, 24 h
Method: The objectives of this study were as follows: • 1. To determine the level of mRNA silencing in established Hep3B liver tumors following a single IV administration of PLK1424 SNALP. • 2. To confirm the mechanism of mRNA silencing by detecting specific RNA cleavage products using RACE-PCR. • 3. To confirm induction of tumor cell apoptosis by histopathology.
A comparison of the effect of PEG-cDMA and PEG-cDSA 1:57 SNALPs on PLK-1 mRNA silencing was performed using established intrahepatic Hep3B tumors in scid/beige mice. A single 2 mg/kg dose of PLK-1 SNALP containing either PEG-cDMA or PEG-cDSA was administered intravenously. Liver/tumor samples were collected at 24 and 96 hours after SNALP treatment. Control=2 mg/kg Luc-cDMA SNALP at 24 hours.
Measurement of human PLK-1 and GAPDH mRNA in tumor tissues. […] Human PLK-1 and GAPDH mRNA were measured in tumor lystes by the QuantiGene bDNA assay (Panomics) as per the manufacturer's instructions (Quantigene 1.0 Manual). […] Data were expressed as mean PLK-1:GAPDH ratio+/−SD of individual animals. Tumor burden was assessed by homogenizing the complete liver from tumor bearing mice and measuring the total hGAPDH signal (RLU's) within the liver. Values were expressed as hGAPDH RLU/mg total liver.
Subcutaneous tumor models. […] The extent of PLK-1 mRNA knockdown was determined in the Hep3B tumors about 24 hours after SNALP administration.

[8] = system: IFIT1 mRNA, serum IFNα; details: mouse, in vivo, iv
Method: as §1, §2, §3, §4, §5, §6

[9] = system: IFN-α, IFIT1 mRNA; test: In vivo immune stimulation assay in CD1 ICR mice (plasma IFN-α, IFIT1 mRNA); set-up: species or system mouse; details: 1:57 PEG-cDMA SNALP, 3 mg/kg IV, 4 h
Method: In vivo immune stimulation assays. Animal studies were performed to test for the immunostimulatory activity of SNALP containing 2′OMe-modified PLK1424 siRNAs. Six-week-old female CD1 ICR mice were used in this study. […] The tolerability of the treatment regime was monitored by animal appearance and behavior.

[10] = system: human PLK-1 mRNA; test: 5′ RACE-PCR in HT29 cells; assay type: cell-based; details: 10 nM, 24 h
Method: (A) HT29 cells were treated with 10 nM SNALP-formulated PLK1424, Luc siRNA or PBS. RNA was isolated 24 hours after transfection and assayed for the specific PLK-1 mRNA cleavage product by 5′-RACE-PCR. (B) Neuro2a cells were treated with SNALP-formulated KSP2263, PLK773 siRNA or PBS. RNA was isolated 24 hours after transfection and assayed for the specific mouse KSP mRNA cleavage product by 5′-RACE-PCR.
The detection of specific RNA cleavage products generated by RISC-mediated hydrolysis of target mRNA is the definitive marker confirming RNAi as the mechanism of gene silencing (39, 40). Activated RISC cleaves target mRNA precisely between the nucleotides complementary to positions 10 and 11 of the siRNA AS strand generating an mRNA cleavage product that is unique to the siRNA sequence. This can be detected in cells using an appropriately designed 5′-rapid amplification of cDNA ends-PCR method (RACE-PCR). We developed RACE-PCR assays to detect the PLK1424-specific cleavage product of human PLK-1 mRNA and the KSP2263-specific cleavage product of mouse KSP mRNA.
5′ RNA Ligase Mediated Rapid Amplification of cDNA ends (5′ RLM RACE).

Substance | cell viability / inhibition of cell growth [1] | cell viability [2] | mean SNALP particle size [3] | cell viability / anti-proliferative activity [4] | IgG / IgM antibody response against PEG-lipid (PEG-cDMA) [5] | IFIT1 mRNA induction in liver and spleen [6] | tumor hPLK-1 mRNA, % of levels in PBS-treated mice [7] [%] | serum IFNα / serum cytokine response [8] | IFIT1 induction (QG analysis) [9] | PLK-1 mRNA cleavage product by 5′ RACE-PCR [10]
PLK1424: siRNA to human PLK-1, SEQ ID NO:1/2 (UU overhang form 211/212) (chain 1 AGAUCACCCUCCUUAAAUA; chain 2 UAUUUAAGGAGGGUGAUCU; further chemistry not given here) | inhibiting cell growth; also recorded: potent activity | potent activity | 83 nm and 72 nm | potent activity |  |  |  |  |  | 
PLK1424-2/A: 2′OMe-modified PLK1424 duplex, SEQ ID NO:214/215 (same SEQ IDs as PLK1424 1/3 of Table 11) (chain 1 AGANCACCCNCCUNAAANAUU; chain 2 UAUUUAANGAGGGUGANCUUU; siRNA; 2'-O-methyl modifications at selected positions, key for n not given here) |  |  |  |  | substantially less immunogenic than SNALP containing the corresponding unmodified PLK1424 siRNA sequence | no measurable IFNα or increase in IFIT1 mRNA in the liver or spleen | 45 | no measurable IFNα | no significant IFIT1 induction above that of empty SNALP | generated the predicted 476 bp 5′ RACE-PCR product
PLK773: siRNA to human PLK-1, SEQ ID NO:3/4 (UU overhang form 218/219) (chain 1 AGACCUACCUCCGGAUCAA; chain 2 UUGAUCCGGAGGUAGGUCU; RNA, backbone not given here) | inhibiting cell growth |  |  |  |  |  |  |  |  | 
